According to US20190060298A1, “NEW DRUG FOR THE TREATMENT AND/OR PREVENTION OF DEPRESSIVE DISORDERS” (SORBONNE UNIVERSITE, priority 2013, published 2019):
Entries after “also recorded” stand apart in the source; their conditions may differ.

Tests used:
[1] = intracerebroventricular administration; cited from earlier work
[2] = system: Keap1; test: Superfusion of the hippocampus, Keap1 levels; parameters: species or system Sprague-Dawley rats; conditions: perfused hippocampi of DF and control rats; 7,8-DHF 10 μM, 1 h
Protocol: (§1) Hippocampi were homogenized in ice-cold buffer A (10 mM Hepes, 150 mM NaCl, 1 mM EDTA, protease inhibitor cocktail [5 μl/ml] and phosphatase inhibitor cocktail [10 μl/ml]) and Nonidet P-40 (0.5%) was then added. After 10 min on ice, homogenates were centrifuged (1,200×g, 10 min, 4° C.). Supernatants were saved as the cytoplasmic fraction. Pellets were washed in ice-cold buffer A and sedimented by centrifugation at 1,200×g for 10 min at 4° C. Nuclear yield and integrity were checked by Giemsa staining and microscopy. Nuclei were resuspended in ice-cold buffer B (20 mM Hepes, 420 mM NaCl, 1.2 mM MgCl2, 0.2 mM EDTA, 25% glycerol, 0.5 mM DTT, protease inhibitor cocktail [5 μl/ml] and phosphatase inhibitor cocktail [10 μl/ml]). Samples were sonicated (15 s, 4° C.) and vortexed every 5 min for 20 min. The cytoplasmic and nuclear fractions were centrifuged at 20,000×g, for 30 min at 4° C. Supernatants were rapidly frozen in liquid nitrogen and stored at −80° C. […]
(§2) 40 μg of nuclear or cytosolic protein (or 20 μg for cell experiments) was resolved by SDS-polyacrylamide gel electrophoresis in a 12% polyacrylamide gel. […] Protein bands were quantified with Odyssey® software (version 3.0, LI-COR Biosciences). […] Images were acquired with a digital camera-based imaging system (ChemiDoc, Biorad) and analyzed with Quantity One software (Bio-Rad). […]

[3] = system: Nrf2; test: Superfusion of the hippocampus, Nrf2 levels; parameters: species or system Sprague-Dawley rats; conditions: 7,8-DHF 10 μM, 1 h; for cytosolic Nrf2 concentration: perfused hippocampi
Protocol: (§3) Hippocampi were homogenized in ice-cold buffer A (10 mM Hepes, 150 mM NaCl, 1 mM EDTA, protease inhibitor cocktail [5 μl/ml] and phosphatase inhibitor cocktail [10 μl/ml]) and Nonidet P-40 (0.5%) was then added. After 10 min on ice, homogenates were centrifuged (1,200×g, 10 min, 4° C.). Supernatants were saved as the cytoplasmic fraction. Pellets were washed in ice-cold buffer A and sedimented by centrifugation at 1,200×g for 10 min at 4° C. Nuclear yield and integrity were checked by Giemsa staining and microscopy. Nuclei were resuspended in ice-cold buffer B (20 mM Hepes, 420 mM NaCl, 1.2 mM MgCl2, 0.2 mM EDTA, 25% glycerol, 0.5 mM DTT, protease inhibitor cocktail [5 μl/ml] and phosphatase inhibitor cocktail [10 μl/ml]). Samples were sonicated (15 s, 4° C.) and vortexed every 5 min for 20 min. The cytoplasmic and nuclear fractions were centrifuged at 20,000×g, for 30 min at 4° C. Supernatants were rapidly frozen in liquid nitrogen and stored at −80° C. A similar protocol was used for cell nuclear and cytosolic extracts.
40 μg of nuclear or cytosolic protein (or 20 μg for cell experiments) was resolved by SDS-polyacrylamide gel electrophoresis in a 12% polyacrylamide gel. The bands were transferred to nitrocellulose or PVDF membranes (Invitrogen, France) for immunoblotting according to standard procedures. We used the following antibody dilutions: 1:250 for rabbit polyclonal antibodies against Nrf2 (Santa Cruz Biotechnology, France), 1:500 for rabbit polyclonal antibodies against Keap1 (Santa Cruz Biotechnology) and 1:5000 for rabbit polyclonal antibodies against aconitase 2 (Gene Tex, France). A dilution of 1:10,000 was used for the fluorescent IRDye® 800CW secondary antibody (ScienceTec, Paris, France). […] Protein bands were quantified with Odyssey® software (version 3.0, LI-COR Biosciences). […] Images were acquired with a digital camera-based imaging system (ChemiDoc, Biorad) and analyzed with Quantity One software (Bio-Rad). […]

[4] = system: Keap1; test: Keap1 levels in hippocampal HT22 cells; format: cell-based; conditions: 30 min, BDNF 100 ng/ml or 7,8-DHF 10 μM
Protocol: as §1, §2

[5] = system: Nrf2; test: Nrf2 translocation in hippocampal HT22 cells; format: cell-based; conditions: 30 min, quercetin 10 μM; for nuclear Nrf2 translocation: BDNF 100 ng/ml, 7,8-DHF 10 μM
Protocol: as §3
40 μg of nuclear or cytosolic protein (or 20 μg for cell experiments) was resolved by SDS-polyacrylamide gel electrophoresis in a 12% polyacrylamide gel. The bands were transferred to nitrocellulose or PVDF membranes (Invitrogen, France) for immunoblotting according to standard procedures. We used the following antibody dilutions: 1:250 for rabbit polyclonal antibodies against Nrf2 (Santa Cruz Biotechnology, France), 1:500 for rabbit polyclonal antibodies against Keap1 (Santa Cruz Biotechnology) and 1:5000 for rabbit polyclonal antibodies against aconitase 2 (Gene Tex, France). A dilution of 1:10,000 was used for the fluorescent IRDye® 800CW secondary antibody (ScienceTec, Paris, France). Membranes were also probed with a mouse monoclonal antibody against GAPDH or a mouse monoclonal antibody against beta-actin (dilutions of 1:10,000 and 1:1,000, respectively, Sigma-Aldrich, France) and with the IRDye® 680CW secondary antibody from ScienceTec (1:10,000), to correct for protein loading. Images were acquired with the Odyssey® infrared imaging system (LI-COR Biosciences). Protein bands were quantified with Odyssey® software (version 3.0, LI-COR Biosciences). For SOD1, Prx2 and PrxSO2/SO3 analysis, we used the following antibody dilutions: 1:1000 for rabbit polyclonal antibodies against SOD (Euromedex), 1:2000 for rabbit polyclonal antibodies against PeroxiredoxinSO2/SO3 (Abcam), 1:1000 for rabbit polyclonal antibodies against Peroxiredoxin2 (Abcam). Horseradish peroxidase-conjugated secondary antibodies were used and membranes were developed with the ECL Plus detection reagent (Pierce, Rockford, Ill.). Images were acquired with a digital camera-based imaging system (ChemiDoc, Biorad) and analyzed with Quantity One software (Bio-Rad). […]

[6] = system: patients suffering of bipolar depression; conditions: cited from earlier work

O=c1cc(-c2ccccc2)oc2c(O)c(O)ccc12 [7,8-DHF, 7,8-dihydroxyflavone]
neuroanatomical alterations (hippocampal CA3 dendritic retraction, increase of amygdala dendritic length) [1]: can prevent neuroanatomical alterations
occurrence of depressive profile [1]: prevent
Keap1 concentration [2]: no change in Keap1 concentration
nuclear Nrf2 translocation ([3]; perfused hippocampi of defeated (DF, D5) and control rats): induced a marked translocation of Nrf2 to the nuclear compartment; also recorded: induced Nrf2 translocation to the nucleus to the same level in defeated and control animals
cytosolic Nrf2 concentration ([3]; DF animals (D5)): induced a decrease in cytosolic Nrf2 concentration; also recorded: decrease in cytosolic Nrf2 levels
cytosolic Nrf2 concentration ([3]; control (C) animals): tendency for this concentration to decrease
Keap1 levels [4]: not affected
nuclear Nrf2 translocation [5]: induced a marked increase; also recorded: produced similar effects on Nrf2

CC(=O)N[C@@H](CS)C(=O)O [N-acetylcysteine (NAC), N-acetylcysteine]
depression scores [6]: induced a robust decrement in depression scores

O=c1c(O)c(-c2ccc(O)c(O)c2)oc2cc(O)cc(O)c12 [quercetin]
nuclear Nrf2 translocation [5]: induces a translocation of Nrf2 to the nucleus
Nrf2 cytosolic fraction [5]: decreased

B1: BDNF: brain derived neurotrophic factor, added to HT22 cell medium at 100 ng/ml (protein, UniProt P23560 19-247, looked up)
Neurotrophic factor BDNF …: APMKEANIRGQGGLAYPGVRTHGTLESVNGPKAGSRGLTSLADTFEHVIEELLDEDQKVRPNEENNKDADLYTSRVMLSSQVPLEPPLLFLLEEYKNYLDAANMSMRVRRHSDPARRGELSVCDSISEWVTAADKKTAVDMSGGTVTVLEKVPVSKGQLKQYFYETKCNPMGYTKEGCRGIDKRHWNSQCRTTQSYVRALTMDSKKRIGWRFIRIDTSCVCTLTIKRGR
Keap1 levels [4]: not affected
nuclear Nrf2 translocation [5]: induced a marked increase; also recorded: produced similar effects on Nrf2
